Assay results reported in US20240269155A1, “METHODS AND USES OF BORON COMPOUNDS IN THE TREATMENT OF NONTUBERCULOUS MYCOBACTERIUM INFECTIONS AND PHARMACEUTICAL COMPOSITIONS FOR TREATMENT OF SAME” (priority 2022, published 2024).
Values after ≈ are worked out from the molar mass of the structure shown. Read-outs that look alike come from different tables or passages of the source.

How the values were obtained:
M. scrofulaceum = test: MIC determination (CLSI M24-A2); format: cell-based, Mycobacterium scrofulaceum; details: Mycobacterium scrofulaceum, read-out: MIC
Description: (§1) The in vitro activity of the parent boron compound described herein was assessed by standard testing procedures such as the determination of minimum inhibitory concentration (MIC) as described in Clinical and Laboratory Standards Institute (CLSI) document M24-A2. Lower MIC values indicate high antibacterial activity, while higher MIC values indicate a reduced antibacterial activity. Generally, MIC values of about ≤2 mg/L indicate a good therapeutic (i.e., suitable for therapy) potency for antibacterial drugs, while MIC values of ≥8 mg/L indicate a lack of therapeutically useful activity for a test compound.
(§2) (MIC ranges from 0.063-2 mg/L).

M. gordonae = test: MIC determination (CLSI M24-A2); format: cell-based, Mycobacterium gordonae; details: Mycobacterium gordonae, read-out: MIC
Description: as §1, §2

M. avium = test: MIC determination (CLSI M24-A2); format: cell-based, Mycobacterium avium; details: Mycobacterium avium, read-out: MIC
Description: as §1, §2

M. intercelleulare = test: MIC determination (CLSI M24-A2); format: cell-based, Mycobacterium intercelleulare; details: Mycobacterium, read-out: MIC
Description: as §1, §2

M. abscessus = test: MIC determination (CLSI M24-A2); format: cell-based, Mycobacterium abscessus; details: Mycobacteroides abscessus, read-out: MIC
Description: as §1, §2

M. fortuitum = test: MIC determination (CLSI M24-A2); format: cell-based, Mycobacterium fortuitum
Description: as §1, §2

M. peregrinum = test: MIC determination (CLSI M24-A2); format: cell-based, Mycobacterium peregrinum
Description: as §1, §2

M. smegmatis = test: MIC determination (CLSI M24-A2); format: cell-based, Mycobacterium smegmatis
Description: as §1, §2

M. massiliense = test: MIC determination (CLSI M24-A2); format: cell-based, Mycobacterium massiliense; details: Mycobacteroides abscessus, read-out: MIC
Description: as §1, §2

Mycobacteria pathogens = test: MIC against mycobacteria pathogens, summary over species; format: cell-based, nontuberculous Mycobacterium
[1] = Lung distribution study in mouse; format: in vivo, Balb/C mouse; details: 10 mg/kg po
[2] = tested on: clinical isolates of M. abscessus complex; test: MIC against clinical isolates of M. abscessus complex; format: cell-based, M. abscessus and M. massiliense; details: Mycobacteroides abscessus, read-out: MIC
[3] = tested on: clinical isolates of M. abscessus complex; test: MBC against clinical isolates of M. abscessus complex; format: cell-based, M. abscessus and M. massiliense; details: for Classification: from MBC/MIC ratio
[4] = Mycolicibacterium fortuitum, read-out: MIC
[5] = Mycolicibacterium peregrinum, read-out: MIC
[6] = Mycolicibacterium smegmatis, read-out: MIC

In the case of `OB1OCc2cc(F)ccc21` [AN2690], the MIC (M. scrofulaceum) is reported as 8 mg/L (≈ 52.7 µM), the MIC (M. gordonae) is reported as 8 mg/L (≈ 52.7 µM) and the MIC (M. avium) is reported as greater than 8 mg/L. For the same molecule, the MIC (M. intercelleulare) was greater than 8 mg/L, the MIC (M. abscessus) was greater than 8 mg/L and the MIC (M. fortuitum; [4]) was greater than 8 mg/L. It also gave an MIC (M. peregrinum; [5]) greater than 8 mg/L, an MIC (M. smegmatis; [6]) greater than 8 mg/L and an MIC (M. massiliense) of 4 mg/L (≈ 26.3 µM). The “activity against all NTM species tested” value (Mycobacteria pathogens; all NTM species tested) was “moderate or no activity”.

For `CC(C)C(=O)OC[C@H](COc1cccc2c1B(O)O[C@@H]2CN)OC(=O)C(C)C.Cl` [Example 2, (2S)-1-{[(3S)-3-(Aminomethyl)-1-hydroxy-1,3-dihydrobenzo[2,1-c][1,2]oxaborol-7-yl]oxy}-3-[(2-methylpropanoyl)oxy]propan-2-yl 2-methylpropanoate hydrochloride], the AUClast ([1]; analyte Example 2 (prodrug), lung) was 968 ng·h/g, the “conversion of prodrug to Example 4 in vivo” value ([1]; plasma) was “rapidly converted to Example 4” and the half-life ([1]; Balb/C, analyte Example 2 (prodrug), lung) was 6.42 h. The AUC(0-t) ([1]; Balb/C, analyte Example 2 (prodrug), plasma) was 0.0421 ng·h/mL.

For `Cl.NC[C@H]1OB(O)c2c(OCCO)ccc(Cl)c21` [GSK656, reference compound], the MIC (M. scrofulaceum) was 4 mg/L, the MIC (M. gordonae) was 0.5 mg/L and the MIC (M. avium) was greater than 8 mg/L. For the same molecule, the MIC (M. intercelleulare) was greater than 8 mg/L, the MIC (M. abscessus) was 0.063 mg/L and the MIC (M. fortuitum) was greater than 8 mg/L. For the same molecule, the MIC (M. fortuitum; [4]) was no less than 8 mg/L, the MIC (M. peregrinum) was 8 mg/L and the MIC (M. peregrinum; [5]) was no less than 8 mg/L. The MIC (M. smegmatis) was greater than 8 mg/L, the MIC (M. smegmatis; [6]) was no less than 8 mg/L and the MIC (M. massiliense) was 0.063 mg/L. The “fold less active than Example 4 (MIC)” value (Mycobacteria pathogens; M. fortuitum, M. peregrinum, M. smegmatis) was “more than 64 fold”, the MIC ([2]; clinical isolate A35) was 0.063 mg/L and the MIC ([2]; clinical isolate A51) was 0.063 mg/L. The MIC ([2]; clinical isolate A197) was 0.063 mg/L, the MIC ([2]; clinical isolate A213) was 0.063 mg/L and the MIC ([2]; clinical isolate A215) was 0.063 mg/L. The MIC ([2]; clinical isolate A217) was 0.063 mg/L, the MIC ([2]; clinical isolate A222) was 0.063 mg/L and the MIC ([2]; clinical isolate A255) was 0.063 mg/L. For the same molecule, the MIC ([2]; clinical isolate A268) was 0.125 mg/L, the MIC ([2]; clinical isolate A274) was 0.125 mg/L and the MIC ([2]; clinical isolate A311) was 0.063 mg/L. It also gave an MIC ([2]; clinical isolate A353) of 0.125 mg/L, an MIC ([2]; clinical isolate G73) of 0.063 mg/L and an MIC ([2]; clinical isolate G74) of 0.063 mg/L. It also gave an MIC ([2]; clinical isolate G87) of 0.063 mg/L, an MIC ([2]; clinical isolate G104) of 0.063 mg/L and an MIC ([2]; clinical isolate G110) of 0.063 mg/L. The MIC ([2]; clinical isolate G164) was 0.063 mg/L, the MIC ([2]; clinical isolate G182) was 0.063 mg/L and the “bactericidal/bacteriostatic classification over the isolates” value ([3]; 20 clinical isolates of M. abscessus complex) was “bacteriostatic against all isolates”. It also gave an MBC ([3]; Mycobacteroides abscessus, clinical isolate A35, read-out: MBC) greater than 2 mg/L, an MBC ([3]; Mycobacteroides abscessus, clinical isolate A51, read-out: MBC) greater than 2 mg/L and an MBC ([3]; Mycobacteroides abscessus, clinical isolate A197, read-out: MBC) greater than 2 mg/L. It also gave an MBC ([3]; Mycobacteroides abscessus, clinical isolate A213, read-out: MBC) of 2 mg/L, an MBC ([3]; Mycobacteroides abscessus, clinical isolate A215, read-out: MBC) of 2 mg/L and an MBC ([3]; Mycobacteroides abscessus, clinical isolate A217, read-out: MBC) of 2 mg/L. For the same molecule, the MBC ([3]; Mycobacteroides abscessus, clinical isolate A255, read-out: MBC) was 2 mg/L, the MBC ([3]; Mycobacteroides abscessus, clinical isolate A268, read-out: MBC) was greater than 4 mg/L and the MBC ([3]; Mycobacteroides abscessus, clinical isolate A274, read-out: MBC) was greater than 4 mg/L. For the same molecule, the MBC ([3]; Mycobacteroides abscessus, clinical isolate A311, read-out: MBC) was 1 mg/L, the MBC ([3]; Mycobacteroides abscessus, clinical isolate A353, read-out: MBC) was 2 mg/L and the MBC ([3]; Mycobacteroides abscessus, clinical isolate G73, read-out: MBC) was greater than 2 mg/L. For the same molecule, the MBC ([3]; Mycobacteroides abscessus, clinical isolate G74, read-out: MBC) was greater than 4 mg/L, the MBC ([3]; Mycobacteroides abscessus, clinical isolate G87, read-out: MBC) was greater than 2 mg/L and the MBC ([3]; Mycobacteroides abscessus, clinical isolate G104, read-out: MBC) was 2 mg/L. It also gave an MBC ([3]; Mycobacteroides abscessus, clinical isolate G110, read-out: MBC) greater than 2 mg/L, an MBC ([3]; Mycobacteroides abscessus, clinical isolate G164, read-out: MBC) greater than 2 mg/L and an MBC ([3]; Mycobacteroides abscessus, clinical isolate G182, read-out: MBC) greater than 2 mg/L. For the same molecule, the Classification ([3]; clinical isolate A35) was “Bacteriostatic (bacteriostatic if the ratio was >4)”, the Classification ([3]; clinical isolate A51) was “Bacteriostatic (bacteriostatic if the ratio was >4)” and the Classification ([3]; clinical isolate A197) was “Bacteriostatic (bacteriostatic if the ratio was >4)”. For the same molecule, the Classification ([3]; clinical isolate A213) was “Bacteriostatic (bacteriostatic if the ratio was >4)”, the Classification ([3]; clinical isolate A215) was “Bacteriostatic (bacteriostatic if the ratio was >4)” and the Classification ([3]; clinical isolate A217) was “Bacteriostatic (bacteriostatic if the ratio was >4)”. The MBC ([3]; clinical isolate A222) was “>>”, the Classification ([3]; clinical isolate A222) was “Bacteriostatic (bacteriostatic if the ratio was >4)” and the Classification ([3]; clinical isolate A232) was “Bacteriostatic (bacteriostatic if the ratio was >4)”. The Classification ([3]; clinical isolate A255) was “Bacteriostatic (bacteriostatic if the ratio was >4)”, the Classification ([3]; clinical isolate A268) was “Bacteriostatic (bacteriostatic if the ratio was >4)” and the Classification ([3]; clinical isolate A274) was “Bacteriostatic (bacteriostatic if the ratio was >4)”. The Classification ([3]; clinical isolate A311) was “Bacteriostatic (bacteriostatic if the ratio was >4)”, the Classification ([3]; clinical isolate A353) was “Bacteriostatic (bacteriostatic if the ratio was >4)” and the Classification ([3]; clinical isolate G73) was “Bacteriostatic (bacteriostatic if the ratio was >4)”. For the same molecule, the Classification ([3]; clinical isolate G74) was “Bacteriostatic (bacteriostatic if the ratio was >4)”, the Classification ([3]; clinical isolate G87) was “Bacteriostatic (bacteriostatic if the ratio was >4)” and the Classification ([3]; clinical isolate G104) was “Bacteriostatic (bacteriostatic if the ratio was >4)”. For the same molecule, the Classification ([3]; clinical isolate G110) was “Bacteriostatic (bacteriostatic if the ratio was >4)”, the Classification ([3]; clinical isolate G164) was “Bacteriostatic (bacteriostatic if the ratio was >4)” and the Classification ([3]; clinical isolate G182) was “Bacteriostatic (bacteriostatic if the ratio was >4)”.

`CC(C)C(=O)OC[C@H](COc1cccc2c1B(O)O[C@@H]2CN)OC(=O)C(C)C.Cl` [drawing 20] gave an MIC (M. avium) greater than 8 mg/L, an MIC (M. intercelleulare) greater than 8 mg/L and an MIC (M. abscessus) greater than 8 mg/L.
